Our source for the IC50 values is patent US7834023B2 (Portola Pharmaceuticals, Inc., priority 2006, dated 2010).

A value given as a limit tells only on which side of the number the result lay.

This test deals with T1, P2Y12 receptor (Homo sapiens, UniProt Q9H244).
T1 construct: endogenous in cells; host or cells: human platelets (outdated from blood banks or fresh), apyrase-washed, whole
T1 sequence (Q9H244 whole entry): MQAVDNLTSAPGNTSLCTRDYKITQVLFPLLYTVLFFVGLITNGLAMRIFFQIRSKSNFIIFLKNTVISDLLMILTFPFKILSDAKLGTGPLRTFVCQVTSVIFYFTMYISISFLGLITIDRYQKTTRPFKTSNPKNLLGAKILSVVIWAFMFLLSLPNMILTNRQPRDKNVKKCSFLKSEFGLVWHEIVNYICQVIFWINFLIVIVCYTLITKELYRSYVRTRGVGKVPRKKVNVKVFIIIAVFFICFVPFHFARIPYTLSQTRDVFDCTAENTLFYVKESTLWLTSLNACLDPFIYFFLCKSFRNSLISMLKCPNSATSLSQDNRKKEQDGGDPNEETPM
Kind of test: platelet ADP receptor binding assay (ARB): inhibition of [3H]2-MeS-ADP binding to platelets. Particulars: [3H]2-MeS-ADP binding to apyrase-washed human platelets. The procedure: 1. The Ability of Candidate Molecules to Inhibit the Binding of [^3H]2-MeS-ADP to the […] Receptor on Platelets was Determined Using a Radioligand Binding Assay.
Utilizing this assay the potency of inhibition of such compounds with respect to [^3H]2-MeS-ADP binding to whole platelets is determined. Under the conditions described in II (3) below, the binding of [^3H]2-MeS-ADP is solely due to the interaction of this ligand with the P2Y12 receptor, in that all the specific binding measured in this assay is competable with a P2Y12 antagonist (i.e., the specific binding is reduced to background levels by competition with an excess of P2Y12 antagonist, with no competition of binding when a P2Y1 antagonist is pre-incubated with the platelet preparation). [^3H]2-MeS-ADP binding experiments are routinely performed with outdated human platelets collected by standard procedures at hospital blood banks. Apyrase-washed outdated platelets are prepared as follows (all steps at room temperature, if not indicated otherwise):
Outdated platelet suspensions are diluted with 1 volume of CGS and platelets pelleted by centrifugation at 1900×g for 45 minutes. Platelet pellets are resuspended at 3-6×10^9 platelets/ml in CGS containing 1 U/ml apyrase (grade V, Sigma, St. Louis, Mo.) and incubated for 15 minutes at 37° C. After centrifugation at 730×g for 20 minutes, pellets are resuspended in Hepes-Tyrode's buffer containing 0.1% BSA (Sigma, St. Louis, Mo.) at a concentration of 6.66×10^8 platelets/ml. Binding experiments are performed after >45 minutes resting of the platelets.
Alternatively, binding experiments are performed with fresh human platelets prepared as described in section I (Inhibition of ADP-Mediated Platelet Aggregation in vitro), except that platelets are resuspended in Hepes-Tyrode's buffer containing 0.1% BSA (Sigma, St. Louis, Mo.) at a concentration of 6.66×10^8 platelets/mil. Very similar results are obtained with fresh and outdated platelets.
A platelet ADP receptor binding assay (ARB) using the tritiated potent agonist ligand [^3H]2-MeS-ADP (Jantzen, H. M. et al. (1999) Thromb. Hemost. 81:111-117) has been adapted to the 96-well microtiter format. In an assay volume of 0.2 ml Hepes-Tyrode's buffer with 0.1% BSA and 0.6% DMSO, 1×10^8 apyrase-washed platelets are preincubated in 96-well flat bottom microtiter plates for 5 minutes with serial dilutions of test compounds before addition of 1 nM [^3H]2-MeS-ADP ([^3H]2-methylthioadenosine-5′-diphosphate, ammonium salt; specific activity 20-50 Ci/mmole, obtained by custom synthesis from Amersham Life Science, Inc., Arlington Heights, Ill., or NEN Life Science Products, Boston, Mass.). Total binding is determined in the absence of test compounds. Samples for nonspecific binding may contain 10 μM unlabelled 2-MeS-ADP (RBI, Natick, Mass.). After incubation for 15 minutes at room temperature, unbound radioligand is separated by rapid filtration and two washes with cold (4-8° C.) Binding Wash Buffer (10 mM Hepes pH 7.4, 138 mM NaCl) using a 96-well cell harvester (Minidisc 96, Skatron Instruments, Sterling, Va.) and 8×12 GF/C glassfiber filtermats (Printed Filtermat A, for 1450 Microbeta, Wallac Inc., Gaithersburg, Md.). The platelet-bound radioactivity on the filtermats is determined in a scintillation counter (Microbeta 1450, Wallac Inc., Gaithersburg, Md.). Specific binding is determined by subtraction of non-specific binding from total binding, and specific binding in the presence of test compounds is expressed as % of specific binding in the absence of test compound dilutions. IC50s were derived by non-linear regression analysis.
The compound `CNc1cc2[nH]c(=O)n(-c3ccc(C(=O)NC(c4nsc(=O)[nH]4)c4ccc(Cl)s4)cc3)c(=O)c2cc1F` (stereo not drawn) [Compound 25, N-((5-chlorothiophen-2-yl)(5-oxo-4,5-dihydro-1,2,4-thiadiazol-3-yl)methyl)-4-(6-fluoro-7-(methylamino)-2,4-dioxo-1,2-dihydroquinazolin-3(4H)-yl)benzamide] yielded an IC50 of 50 to 500 nM. To `N#Cc1ccc2c(=O)n(-c3ccc(C(=O)NC(C(=O)O)c4cccs4)cc3)ccc2c1` (stereo not drawn) [Compound 95] belongs above 500 nM; to `CCOC(=O)C(NC(=O)c1ccc(N2COc3cc(NC)c(F)cc3C2=O)cc1)c1ccc(Cl)s1` (stereo not drawn) [Compound 67, ethyl 2-(5-chlorothiophen-2-yl)-2-(4-(6-fluoro-7-(methylamino)-4-oxo-2H-benzo[e][1,3]oxazin-3(4H)-yl)benzamido)acetate], 50 to 500 nM.

Turning to `CNc1cc2[nH]c(=O)n(-c3ccc(C(=O)NC(c4nnn[nH]4)c4ccc(Cl)s4)cc3OC)c(=O)c2cc1F` (stereo not drawn) [Compound 52, N-((5-chlorothiophen-2-yl)(1H-tetrazol-5-yl)methyl)-4-(6-fluoro-7-(methylamino)-2,4-dioxo-1,2-dihydroquinazolin-3(4H)-yl)-3-methoxybenzamide], the IC50 was in the range of 50 to 500 nM. To `CNc1cc2c(cc1F)C(=O)N(c1ccc(C(=O)N[C@@H](Cc3ccccc3)C(=O)O)cc1)CO2` [Compound 60, (S)-2-(4-(6-fluoro-7-(methylamino)-4-oxo-2H-benzo[e][1,3]oxazin-3(4H)-yl)benzamido)-3-phenylpropanoic acid] belongs 50 to 500 nM. In turn, `CNc1cc2c(cc1F)C(=O)N(c1ccc(CC(=O)NC(C(=O)N(C)C)c3ccc(Cl)s3)cc1)CO2` (stereo not drawn) [Compound 120, 2-(5-chlorothiophen-2-yl)-2-(2-(4-(6-fluoro-7-(methylamino)-4-oxo-2H-benzo[e][1,3]oxazin-3(4H)-yl)phenyl)acetamido)-N,N-dimethylacetamide] gave an IC50 above 500 nM.

Turning to `CNc1cc2c(cc1F)C(=O)N(c1ccc(C(=O)N[C@H](c3nnn[nH]3)c3ccc(Cl)s3)cc1)CO2` [Compound 89, (R)-N-((5-chlorothiophen-2-yl)(1H-tetrazol-5-yl)methyl)-4-(6-fluoro-7-(methylamino)-4-oxo-2H-benzo[e][1,3]oxazin-3(4H)-yl)benzamide], the IC50 is below 50 nM.

Consider `O=C(NC(C(=O)O)c1cccs1)c1ccc(-n2c(=O)[nH]c3ccccc3c2=O)cc1` (stereo not drawn) [Compound 39], for which the IC50 was above 500 nM. `O=C(NCc1ccc(Cl)s1)Nc1ccc(-n2c(=O)[nH]c3cc(NCc4ccc(F)cc4)ccc3c2=O)cc1` [Compound 107, 1-((5-chlorothiophen-2-yl)methyl)-3-(4-(7-(4-fluorobenzylamino)-2,4-dioxo-1,2-dihydroquinazolin-3(4H)-yl)phenyl)urea] came in with an IC50 below 50 nM. To `O=C(NC(Cc1cccs1)C(=O)O)c1ccc(-n2c(=O)[nH]c3cc(NCc4ccc(F)cc4)ccc3c2=O)cc1` (stereo not drawn) [Compound 3, 2-(4-(7-(4-fluorobenzylamino)-2,4-dioxo-1,2-dihydroquinazolin-3(4H)-yl)benzamido)-3-(thiophen-2-yl)propanoic acid] belongs 50 to 500 nM. `CNc1cc2cnn(-c3ccc(C(=O)NC(C(=O)O)c4ccc(Cl)s4)cc3)c(=O)c2cc1F` (stereo not drawn) [Compound 117, 2-(5-chlorothiophen-2-yl)-2-(4-(7-fluoro-6-(methylamino)-1-oxophthalazin-2(1H)-yl)benzamido)acetic acid] returned an IC50 of 50 to 500 nM. To `CNc1cc2[nH]c(=O)n(-c3ccc(C(=O)NC(c4cccc(C(F)(F)F)c4)c4nnn[nH]4)cc3)c(=O)c2cc1F` (stereo not drawn) [Compound 34] belongs above 500 nM; to `CNc1cc2[nH]c(=O)n(-c3ccc(CNC(CC(=O)O)c4ccc(Cl)s4)cc3)c(=O)c2cc1F` (stereo not drawn) [Compound 104, 3-(5-chlorothiophen-2-yl)-3-(4-(6-fluoro-7-(methylamino)-2,4-dioxo-1,2-dihydroquinazolin-3(4H)-yl)benzylamino)propanoic acid], 50 to 500 nM; to `CNc1cc2c(cc1F)C(=O)N(c1ccc(C(=O)NC(c3ccc(Cl)s3)c3nc(C)cs3)cc1)CO2` (stereo not drawn) [Compound 85, N-((5-chlorothiophen-2-yl)(4-methylthiazol-2-yl)methyl)-4-(6-fluoro-7-(methylamino)-4-oxo-2H-benzo[e][1,3]oxazin-3(4H)-yl)benzamide], 50 to 500 nM. The figure for `CNc1cc2c(cc1F)C(=O)N(c1ccc(C(=O)N[C@@H](c3nnn[nH]3)c3ccc(Cl)s3)cc1)CO2` [Compound 87, N-((5-chlorothiophen-2-yl)(1H-tetrazol-5-yl)methyl)-4-(6-fluoro-7-(methylamino)-4-oxo-2H-benzo[e][1,3]oxazin-3(4H)-yl)benzamide] is below 50 nM. The figure for `O=C(NC(C(=O)O)c1cccs1)c1ccc(-n2ccc3ccccc3c2=O)cc1` (stereo not drawn) [Compound 97, 2-(4-(1-oxoisoquinolin-2(1H)-yl)benzamido)-2-(thiophen-2-yl)acetic acid] is above 500 nM; for `CNc1cc2[nH]c(=O)n(-c3ccc(NC(=O)NC(C(=O)O)c4ccc(Cl)s4)cc3)c(=O)c2cc1F` (stereo not drawn) [Compound 110, 2-(5-chlorothiophen-2-yl)-2-(3-(4-(6-fluoro-7-(methylamino)-2,4-dioxo-1,2-dihydroquinazolin-3(4H)-yl)phenyl)ureido)acetic acid] it is above 500 nM. In turn, `COc1cccc2c1OCN(c1ccc(C(=O)NC(C(=O)O)c3ccc(Cl)s3)cc1)C2=O` (stereo not drawn) [Compound 68, 2-(5-chlorothiophen-2-yl)-2-(4-(8-methoxy-4-oxo-2H-benzo[e][1,3]oxazin-3(4H)-yl)benzamido)acetic acid] registered an IC50 above 500 nM. In the case of `N#Cc1cn(-c2ccc(C(=O)NC(C(=O)O)c3ccc(Cl)s3)cc2)c(=O)c2ccccc12` (stereo not drawn) [Compound 100, 2-(5-chlorothiophen-2-yl)-2-(4-(4-cyano-1-oxoisoquinolin-2(1H)-yl)benzamido)acetic acid], the half-inhibitory concentration (IC50) was above 500 nM. The figure for `CNc1cc2c(cc1F)C(=O)N(c1ccc(C(=O)N(CCC(=O)O)Cc3ccc(Cl)s3)cc1)CO2` [Compound 86, 3-(N-((5-chlorothiophen-2-yl)methyl)-4-(6-fluoro-7-(methylamino)-4-oxo-2H-benzo[e][1,3]oxazin-3(4H)-yl)benzamido)propanoic acid] is above 500 nM. For `O=C(NCc1nnn[nH]1)c1ccc(-n2c(=O)[nH]c3cc(NCc4ccc(F)cc4)ccc3c2=O)cc1` [Compound 10, N-((1H-tetrazol-5-yl)methyl)-4-(7-(4-fluorobenzylamino)-2,4-dioxo-1,2-dihydroquinazolin-3(4H)-yl)benzamide], the IC50 is above 500 nM.

As for `CNc1cc2[nH]c(=O)n(-c3ccc(C(=O)NC(C(=O)O)c4ccc(Cl)s4)c(Cl)c3)c(=O)c2cc1F` (stereo not drawn) [Compound 43, 2-(2-chloro-4-(6-fluoro-7-(methylamino)-2,4-dioxo-1,2-dihydroquinazolin-3(4H)-yl)benzamido)-2-(5-chlorothiophen-2-yl)acetic acid], the IC50 was in the range of 50 to 500 nM. To `O=C(NC(C(=O)O)c1ccc(Cl)s1)c1ccc(-n2ccc3ccccc3c2=O)cc1` (stereo not drawn) [Compound 96, 2-(5-chlorothiophen-2-yl)-2-(4-(1-oxoisoquinolin-2(1H)-yl)benzamido)acetic acid] belongs above 500 nM; to `CNc1cc2c(=O)n(-c3ccc(C(=O)NC(C(=O)O)c4ccc(Cl)s4)cc3)c(=O)[nH]c2cc1F` (stereo not drawn) [Compound 48, 2-(5-chlorothiophen-2-yl)-2-(4-(7-fluoro-6-(methylamino)-2,4-dioxo-1,2-dihydroquinazolin-3(4H)-yl)benzamido)acetic acid], 50 to 500 nM.

For orientation: IC50 means the concentration that gives 50% inhibition. Higher therefore signals lower potency.
